Experimental findings from US20260258039A1, “AROMATIC COMPOUND, METHOD FOR PREPARING SAME, AND USE THEREOF IN PREPARATION OF ESTROGEN RECEPTOR DEGRADER” (Hinova Pharmaceuticals Inc., priority 2022, published 2026) are described below.

Read-outs that look alike come from different tables or passages of the source. A value given as a limit tells only on which side of the number the result lay.

What all share (assay type): cell-based
The test system of test [1] is MCF-7 breast cancer cells. In words: Inhibition of proliferation of MCF-7 breast cancer cells (agarose culture, CellTiter-Glo 3D). The conditions noted are these: MCF-7 cells, 15 days of cultivation, read-out: IC50. As for the experimental part:
After 1.6% agarose and 0.7% agarose were sterilized at high temperature, they were cooled to around 50° C., and placed in a 42° C. water bath for later use. MCF-7 breast cancer cells were subcultured in complete cell culture medium, and cells in good growth condition were digested and counted for future use. 50 µL of 1.6% agarose mixed with 2× culture medium at a ratio of 1:1 was spread into the bottom of 96-well plate, and allowed to cool and solidify. 0.7% agarose was mixed with diluted cell suspension in a ratio of 1:1, and then 50 µL of the mixture of gel and cells was added to each well, with 2000 cells for each well; the mixture was allowed to cool and solidify at room temperature. 50 μL of culture medium was added to the plate containing cells, and the plate was placed in a 37° C., 5% CO2 incubator and cultured for 24 h. The drug was prepared into 10 mM stock solution with dimethyl sulfoxide (DMSO). The stock solution was diluted in a ratio of 1:3, to obtain 9 concentration gradients. Then, each concentration of compound solution was further diluted with culture medium in 1:250 (to ensure a DMSO concentration of 0.1% in the culture system). Two replicate wells was set for each concentration. 50 μL of the diluted compound solution was added to the cell culture wells (with final concentrations of 10 μM, 3.3 μM, 1.1 μM, 0.37 μM . . . ). The plate was gently shaken for mixing. Additionally, 3 negative control wells only containing cells and 3 blank control wells only containing culture medium were set up (each of the 6 wells was added with 50 μL of DMSO diluted with culture medium in a ration of 1:250). After 15 days of cultivation, the cell plates and CellTiter-Glo 3D Cell Viability were taken out and equilibrated to room temperature in advance. 80 μL of culture medium were aspirated and discarded from the cell plate, and 120 µL of CellTiter-Glo 3D Cell Viability solution was added to each well. The plates were centrifuged at 1200 rpm/min for 5 min, and then placed in the dark and kept for 25 min. The […] were measured using a multi-function microplate reader. The data were analyzed using the Dose-response-inhibition equation in GraphPad Prism8 software, and the IC50 values were obtained, as shown in Table 3.
(In ATP-based viability assays light output follows the ATP content of the culture.)

Test [2] addresses T1, ER (Homo sapiens, UniProt P03372).
T1 construct: T47D breast cancer cells were subcultured in cell culture medium; endogenous in cells; host or cells: T47D breast cancer cells
T1 sequence (P03372 1-595): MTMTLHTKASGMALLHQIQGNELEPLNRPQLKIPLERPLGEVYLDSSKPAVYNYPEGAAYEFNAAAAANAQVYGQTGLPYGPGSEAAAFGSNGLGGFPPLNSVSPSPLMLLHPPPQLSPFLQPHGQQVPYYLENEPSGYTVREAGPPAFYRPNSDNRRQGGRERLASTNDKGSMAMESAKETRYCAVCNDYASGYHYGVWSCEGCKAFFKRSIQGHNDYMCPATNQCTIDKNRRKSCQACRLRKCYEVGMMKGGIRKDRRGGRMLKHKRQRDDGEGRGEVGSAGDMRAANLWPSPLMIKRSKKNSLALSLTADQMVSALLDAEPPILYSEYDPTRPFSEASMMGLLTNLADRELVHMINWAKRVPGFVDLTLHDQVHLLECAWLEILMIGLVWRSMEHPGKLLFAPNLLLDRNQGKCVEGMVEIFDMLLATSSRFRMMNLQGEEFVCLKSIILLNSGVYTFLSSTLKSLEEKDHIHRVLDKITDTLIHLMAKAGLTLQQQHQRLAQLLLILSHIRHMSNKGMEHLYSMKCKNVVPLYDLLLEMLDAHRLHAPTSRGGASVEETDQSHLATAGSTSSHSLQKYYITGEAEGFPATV
In words: Degradation activities on ER (Western blotting) in T47D breast cancer cells. The conditions noted are these: Western blot; for Percentage reduction of ER: 24 h. The protocol:
T47D breast cancer cells were subcultured in cell culture medium, and the cells in good growth condition were seeded into 6-well plate at 2 mL/well, with 2.5×10^5 cells per well. The cells were incubated overnight in a 37° C. incubator under 5% CO2. The drug was prepared into 10 mM stock solution with dimethyl sulfoxide (DMSO). Prior to use, the stock solution was diluted with DMSO in a ratio of 1:3. […] of the diluted compound was added to the cell culture wells (to ensure a DMSO concentration of 0.1% in the culture system), and each concentration was repeated twice. The plate were gently shaken to mix. Additionally, the negative control wells (containing equal amount of DMSO) and the positive control wells were set up. After 24 hours of culture, the cells were lysed with RIPA cell lysis buffer to extract proteins, and the protein concentration was measured using a BCA kit. The protein loading buffer (5×) was added, and the plate was heated at 100° C. for 5 min. Then, the sample was stored at −20° C. […] of protein collected from each well was loaded onto a polyacrylamide gel for electrophoresis. The protein is transferred from the polyacrylamide gel to a PVDF membrane, blocked with 5% skim milk at room temperature for 1 h, and incubated overnight at 4° C. with primary antibodies Anti-ERα rabbit mAb (CST, Cat #: 8644S) and Anti-GAPDH rabbit mAb (CST, Cat #: 2118L). The membrane was washed three times with TBST solution, with 10 min for each time. The secondary antibody (horseradish peroxidase-labeled goat anti-rabbit IgG) was incubated at room temperature for 2 h, and then the membrane was washed three times with TBST solution, with 10 min for each time. Finally, ECL chromogenic solution was added for color development, and an automatic chemiluminescence instrument was used to take pictures. Images were collected and analyzed.
The degradation activities of the compounds according to the present invention towards ER, as tested by western blotting, are presented in Table 2

In test [3] the target is T1, ER. In words: Degradation activities on ER (ELISA) in T47D breast cancer cells. Particulars: T47D cells, 24 h, ELISA; for DC50: concentration required to degrade 50% of the target protein; for Dmax: maximum percentage of target protein degraded. In a few lines:
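Cellular ER degradation ELISA: compound dosed 24 h on T47D cells (2.5×10^4/well, pre-grown 3 days) at six final levels from 100 nM downward. Remaining ER was detected by HRP-TMB absorbance at 450 nm. Dose-response fitting gave DC50 and Dmax, the maximal percentage degraded.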
(In an ELISA, binding on a coated surface is turned into a signal by an enzyme label.)

For orientation: IC50 means the point on the concentration scale where inhibition reaches its midpoint. With `O=C1CCC(N2Cc3cc(N4CC5CN(CC6CCN(c7ccc([C@@H]8c9ccc(O)cc9OC[C@@H]8c8ccccc8)cc7)CC6)CC5C4)ccc3C2=O)C(=O)N1` (stereo partly drawn) [Example 83, 3-(5-(5-((1-(4-((3S, 4R)-7-hydroxyl-3-phenylchroman-4-yl)phenyl)piperidin-4-yl)methyl)hexahydropyrrolo[3,4-c]pyrrole-2(1H)-yl)-1-oxoisoinodolin-2-yl)piperidin-2,6-dione], the IC50 in test [1] (Homo sapiens, MCF7, 360 h) is below 10 nM. In addition, at ER [2] (compound concentration 1 nM), the “Percentage reduction of ER” value was 87%.
On the same counts, the results for `O=C1CCC(N2Cc3cc(N4CCC5(CCN(CC6CCN(c7ccc([C@@H]8c9ccc(O)cc9OC[C@@H]8c8ccccc8)cc7)CC6)C5)C4)ccc3C2=O)C(=O)N1` (stereo partly drawn) [Example 8, 3-(5-(7-((1-(4-((3S,4R)-7-hydroxyl-3-phenyltryptophane-4-yl)phenyl)piperidin-4-yl)methyl)-2,7-diazaspiro[4.4]nonane-2-yl)-1-oxoisoinodolin-2-yl)piperidin-2,6-dione] are 11 to 50 nM and 47%.
In general, DC50 refers to the concentration at which degradation of the target reaches its halfway point. By Dmax is commonly meant the largest share of the target that was removed. For “3-(5-(7-((1-(2,6-difluoro-4-((3,4-cis)-3-(2-fluorophenyl)-7-hydroxychroman-4-yl)phenyl)piperidin-4-yl)methyl)-2,7-diazaspiro[3.5]nonane-2-yl)-1-oxoisoinodolin-2-yl)piperidin-2,6-dione [Example 33]”, the IC50 in test [1] is below 10 nM. On ER [3], the DC50 is below 10 nM and the Dmax entry is on record as “B (B: 75-50%)”. For the same compound, on ER [2] (compound concentration 1 nM), the “Percentage reduction of ER” value is reported as 53%.
`O=C1CCC(N2Cc3cc(N4CC5(CCN(CC6CCN(c7ccc([C@@H]8c9ccc(O)cc9OC[C@@H]8c8ccccc8)cc7)CC6)CC5)C4)ccc3C2=O)C(=O)N1` (stereo partly drawn) [Example 79, 3-(5-(7-((1-(4-((3S,4R)-7-hydroxyl-3-phenylchroman-4-yl)phenyl)piperidin-4-yl)methyl)-2,7-diazaspiro[3.5]nonane-2-yl)-1-oxoisoinodolin-2-yl)piperidin-2,6-dione]: the IC50 in test [1] (Homo sapiens, MCF7, 360 h) is below 10 nM. The same compound had a DC50 at ER [3] below 10 nM. Besides, the Dmax on ER [3] (read-out: Dmax) was 50 to 75%. Besides, the “Percentage reduction of ER” value at ER [2] (compound concentration 1 nM) came to 70%.
`O=C1CCC(N2Cc3cc(N4CC5(CCN(CC6CCN(c7ccc([C@@H]8c9ccc(O)cc9CC[C@@H]8c8ccccc8)cc7)CC6)C5)C4)ccc3C2=O)C(=O)N1` (stereo partly drawn) [Example 31, 3-(5-(6-((1-(4-((1,2-cis)-6-hydroxyl-2-phenyl-1,2,3,4-tetrahydronaphthalen-1-yl)phenyl)piperidin-4-yl)methyl)-2,6-diazaspiro[3.4]octane-2-yl)-1-oxoisoinodolin-2-yl)piperidin-2,6-one]: the half-inhibitory concentration (IC50) in test [1] (Homo sapiens, MCF7, 360 h) fell in the range of 11 to 50 nM. For the same compound, the “Percentage reduction of ER” value on ER [2] (compound concentration 100 nM) came to 50%.
With `O=C1CCC(N2C(=O)c3ccc(N4CC5(CCN(CC6CCN(c7ccc([C@@H]8c9ccc(O)cc9OC[C@@H]8c8ccccc8)cc7)CC6)CC5)C4)cc3C2=O)C(=O)N1` (stereo partly drawn) [Example 81, 2-(2,6-dioxopiperidin-3-yl)-5-(7-((1-(4-((3S,4R)-7-hydroxyl-3-phenylchroman-4-yl)phenyl)piperidin-4-yl)methyl)-2,7-diazaspiro[3.5]nonane-2-yl)isoinodolin-1,3-dione], the IC50 in test [1] (Homo sapiens, MCF7, 360 h) lay in the range of 11 to 50 nM. In addition, the DC50 at ER [3] lay within 10 to 50 nM. Moreover, the Dmax at ER [3] (read-out: Dmax) fell in the range of 50 to 75%. The “ER degradation activity (in words)” value at ER [2] is given as “good ER degradation activity”. For the same compound, the “Percentage reduction of ER” value on ER [2] (compound concentration 10 nM) is 82%.
In the case of `O=C1CCC(N2Cc3cc(N4CC5(CCN(CC6CCN(c7ccc([C@@H]8c9ccc(O)cc9CC[C@@H]8c8ccccc8)cc7)CC6)CC5)C4)ccc3C2=O)C(=O)N1` (stereo partly drawn) [Example 4], the IC50 in test [1] (Homo sapiens, MCF7, 360 h) fell in the range of 11 to 50 nM. The “Percentage reduction of ER” value at ER [2] (compound concentration 10 nM) is given as 74%.
`O=C1CCC(N2Cc3cc(N4CCC(CN5CC6(CCN(c7ccc([C@@H]8c9ccc(O)cc9CC[C@@H]8c8ccccc8)cc7)CC6)C5)CC4)ccc3C2=O)C(=O)N1` (stereo partly drawn) [Example 11]: the IC50 in test [1] (Homo sapiens, MCF7, 360 h) is below 10 nM. The compound also came in with a DC50 at ER [3] below 10 nM. Moreover, the Dmax on ER [3] (read-out: Dmax) lay in the range of 50 to 75%. Moreover, on ER [2] (compound concentration 10 nM), the “Percentage reduction of ER” value was determined as 84%.
In the case of `O=C1CCC(N2Cc3cc(N4CCC5(CC4)CN(CC4CCN(c6ccc([C@@H]7c8ccc(O)cc8OC[C@@H]7c7ccccc7)cc6)CC4)C5)ccc3C2=O)C(=O)N1` (stereo partly drawn) [Example 58, 3-(5-(2-((1-(4-((3S,4R)-7-hydroxyl-3-phenyl-chroman-4-yl)phenyl)piperidin-4-yl)methyl)-2,7-diazaspiro[3.5]nonan-7-yl)-1-oxoisoinodolin-2-yl)piperidin-2,6-dione], in test [1] (Homo sapiens, MCF7, 360 h), the IC50 was below 10 nM. Also, the “Percentage reduction of ER” value at ER [2] (compound concentration 1 nM) was 76%.
On the same counts, the results for `O=C1CCC(N2Cc3cc(N4CC5(CN(CC6CCN(c7ccc([C@@H]8c9ccc(O)cc9OC[C@@H]8c8ccccc8)cc7)CC6)C5)C4)ccc3C2=O)C(=O)N1` (stereo partly drawn) [Example 57, 3-(5-(6-((1-(4-((3S,4R)-7-hydroxyl-3-phenyl-chroman-4-yl)phenyl)piperidin-4-yl)methyl)-2,6-diazaspiro[3.3]heptan-2-yl)-1-oxoisoinodolin-2-yl)piperidin-2,6-one] are below 10 nM and 77%.
Regarding `O=C1CCC(N2Cc3cc(N4CC5(CCN(CC6CCN(c7ccc([C@@H]8c9ccc(O)cc9OC[C@@H]8c8ccccc8)cc7F)CC6)CC5)C4)ccc3C2=O)C(=O)N1` (stereo partly drawn) [Example 88, 3-(5-(7-((1-(2-fluoro-4-(cis-7-hydroxyl-3-phenylchroman-4-yl)phenyl)piperidin-4-yl)methyl)-2,7-diazaspiro[3.5]nonane-2-yl)-1-oxoisoinodolin-2-yl)piperidin-2,6-dione], in test [1] (Homo sapiens, MCF7, 360 h), the concentration for half-maximal inhibition (IC50) was below 10 nM. The DC50 on ER [3] is below 10 nM. Further, the maximal degradation (Dmax) at ER [3] (read-out: Dmax) lay in the range of 50 to 75%. The “Percentage reduction of ER” value at ER [2] (compound concentration 10 nM) is recorded as 47%.
